Drawing on article PMC6934184, “Selective DNA-PKcs inhibition extends the therapeutic index of localized radiotherapy and chemotherapy” (The Journal of Clinical Investigation, 2019), this text covers inhibition for 1 molecule.

As usually defined, the inhibition is the drop in the measured response relative to a control, in per cent.

The target of this experiment is T1, JAK2 JH1 JH2 V617F (Homo sapiens, UniProt O60674, V617F).
T1 construct: JAK2 JH1 JH2 V617F; purchased Thermo Fisher Scientific (Life Technologies) SelectScreen
T1 sequence (O60674 532-1132 V617F limits assumed): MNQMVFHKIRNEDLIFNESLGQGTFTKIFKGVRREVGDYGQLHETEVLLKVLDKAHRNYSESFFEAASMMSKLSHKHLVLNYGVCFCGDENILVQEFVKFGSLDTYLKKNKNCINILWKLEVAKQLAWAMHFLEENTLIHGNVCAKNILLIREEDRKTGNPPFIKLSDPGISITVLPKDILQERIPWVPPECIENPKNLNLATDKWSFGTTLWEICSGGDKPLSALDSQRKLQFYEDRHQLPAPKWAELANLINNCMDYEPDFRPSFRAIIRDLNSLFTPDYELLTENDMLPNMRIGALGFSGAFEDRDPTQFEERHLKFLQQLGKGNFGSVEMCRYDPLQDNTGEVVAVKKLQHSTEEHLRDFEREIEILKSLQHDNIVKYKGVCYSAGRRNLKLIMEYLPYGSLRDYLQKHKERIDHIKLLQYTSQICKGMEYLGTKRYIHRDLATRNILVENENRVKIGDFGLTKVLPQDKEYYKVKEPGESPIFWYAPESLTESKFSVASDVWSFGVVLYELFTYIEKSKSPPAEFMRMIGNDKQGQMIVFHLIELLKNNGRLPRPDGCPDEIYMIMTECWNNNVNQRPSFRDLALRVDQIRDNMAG
In words: SelectScreen Z'LYTE. Type of experiment: biochemical. In a few lines:
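Percent values come from Thermo SelectScreen profiling of NU5455, combining activity and binding assays. CSF1R was run in Z'LYTE format at Km app ATP, and CAMK1 in Adapta format with ATP listed at 10.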

For the molecule `CN(C(=O)CN1CCOCC1)c1ccc2sc3c(-c4cccc5c(=O)cc(N6CC7CCC(C6)O7)oc45)cccc3c2c1` [NU5455], the inhibition at 1 µM is -13.8%.
